Assay results as given in publication PMC8151276, “An Integrated Approach toward NanoBRET Tracers for Analysis of GPCR Ligand Engagement” (Molecules, 2021).

Experiments:
Assay type in all cases: binding
[1] = molecular target: T1, CCR4 (Homo sapiens, UniProt P51679); assay: NanoBRET screen HiBiT-CCR4 in HEK293
T1 construct: purchased Promega (in-house HiBiT-GPCR construct library, NanoBRET)
T1 sequence (P51679 1-360): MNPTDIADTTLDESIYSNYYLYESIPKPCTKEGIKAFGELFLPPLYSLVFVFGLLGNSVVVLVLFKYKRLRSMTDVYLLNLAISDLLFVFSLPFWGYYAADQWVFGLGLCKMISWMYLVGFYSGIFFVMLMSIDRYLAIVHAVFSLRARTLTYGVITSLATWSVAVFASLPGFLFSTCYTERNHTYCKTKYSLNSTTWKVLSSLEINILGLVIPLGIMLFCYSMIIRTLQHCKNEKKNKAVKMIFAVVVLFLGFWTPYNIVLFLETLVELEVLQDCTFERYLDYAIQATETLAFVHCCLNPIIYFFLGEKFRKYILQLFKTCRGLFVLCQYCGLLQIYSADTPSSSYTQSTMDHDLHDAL
Method: (§1) Each tracer candidate was screened across the entire library of HiBiT-GPCR constructs using NanoBRET as the detection modality. As depicted in Figure 4A, the specificity of interactions was evaluated through decrease in BRET due to competitive displacement of a bound tracer by excess parental compound. Each tracer was analyzed for binding to each HiBiT-GPCR fusion in the absence and in the presence of competing parental compound. Briefly, HEK293 cells were transfected with HiBiT-GPCR constructs diluted into promoterless DNA to reduce expression and maximize translocation to the cell surface. Each tracer candidate was then screened at concentrations of 1 μM and 0.1 μM across cells expressing these fusions. Cells were treated for 1.5 h with tracer either alone or in the presence of 20 μM competing parental compound (i.e., control). BRET was measured upon addition of purified LgBiT and subsequent complementation with HiBiT genetically fused to a GPCR. The specificity of interactions was assessed through a decrease in BRET signal due to competitive displacement of the bound tracer. To further gauge the robustness of these interactions, the fold response over the control (i.e., BRETtracer/BRETcontrol) was calculated. We chose a 1.5-fold response, which translates to ≥7-fold signal over noise as the minimal threshold required to score an interaction as positive. […]. Below we highlight the screening results obtained for our exemplary fluorescent tracers based on Clozapine, Amitriptyline and AZD1283.
(§2) HiBiT-GPCR DNA constructs were diluted in 10 mM Tris pH 8 to a final concentration of 0.01 μg/μL, arrayed in 96-well plates and stored at −20 °C. For transfection, HEK293 cells were suspended in Opti-MEM (without phenol red) supplemented with 2% fetal bovine serum (Seradigm) and 100 units/mL penicillin–streptomycin (Gibco) at a final concentration of 220,000 cells/mL and dispensed into white 96-well plates at 90 μL/well. Subsequent transfections and screens were carried using an Agilent Bravo Automated Liquid Handling Platform. First, the 96-well HiBiT DNA arrays were diluted 25-fold in Opti-MEM (without serum or phenol red) to a final concentration of 0.0004 μg/μL and 20 μL of the diluted DNAs were transferred into new 96-well plates. Next, promoterless carrier DNA (1 μg/μL) was diluted 25-fold (0.04 μg/μL) and then dispensed into the diluted arrays at 20 μL/well. Following brief mixing, Viafect transfection reagent (Promega) diluted 16-fold into Opti-MEM was dispensed into the plates at 40 μL/well. After mixing by pipetting, plates were incubated for 10 min on the pipetting station deck. The DNA-transfection reagent complexes were then added to plates containing cells. To facilitate the screen, 10 μL of DNA-transfection reagent complexes were added in duplicates to the top 4 and bottom 4 rows, resulting in two identical 48-well arrays per plate. Plates with transfected cells were incubated for 18–20 h at 37 °C/5% CO2. A screen of each tracer across the entire library using two different concentrations requires duplicate plates of transfected cells. Depending on the number of tracers being screened, transfections can be scaled up using the same ratios. The next day, for each tracer, four 20× screening solutions in tracer dilution buffer (Promega) were prepared: two duplicates at final concentration of 20 μM and two duplicates at a final concentration of 2 μM. A competing unmodified compound was added to one of each duplicate at a final concentration of 400 μM. The four resulting solutions were diluted 4-fold in Opti-MEM without serum or phenol red to generate 5× solutions (5 µM and 0.5 µM tracer +/− 100 μM competing compound). To screen the library, a BioTek MultiFlo FX liquid dispenser was used to dispense 22.5 µL of tracer solution to the top 4 rows and 22.5 µL tracer + competing compound solution to the 4 bottom rows. Plates were briefly mixed on an orbital shaker and incubated for 1.5 h at room temperature. […]

[2] = molecular target: T2, P2RY6 (Homo sapiens, UniProt Q15077); assay: NanoBRET screen HiBiT-P2RY6 in HEK293
T2 construct: purchased Promega (in-house HiBiT-GPCR construct library, NanoBRET)
T2 sequence (Q15077 whole entry): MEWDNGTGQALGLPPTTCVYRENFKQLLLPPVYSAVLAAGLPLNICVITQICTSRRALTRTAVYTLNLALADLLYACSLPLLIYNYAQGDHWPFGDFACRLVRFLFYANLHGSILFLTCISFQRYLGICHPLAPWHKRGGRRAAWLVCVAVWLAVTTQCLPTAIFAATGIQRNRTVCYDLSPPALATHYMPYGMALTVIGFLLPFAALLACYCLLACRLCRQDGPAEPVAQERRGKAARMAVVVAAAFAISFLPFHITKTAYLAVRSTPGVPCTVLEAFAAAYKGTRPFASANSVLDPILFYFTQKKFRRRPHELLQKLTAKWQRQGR
Method: as §1, §2

[3] = molecular target: T3, OXTR (Homo sapiens, UniProt P30559); assay: NanoBRET screen HiBiT-OXTR in HEK293
T3 construct: purchased Promega (in-house HiBiT-GPCR construct library, NanoBRET)
T3 sequence (P30559 1-389): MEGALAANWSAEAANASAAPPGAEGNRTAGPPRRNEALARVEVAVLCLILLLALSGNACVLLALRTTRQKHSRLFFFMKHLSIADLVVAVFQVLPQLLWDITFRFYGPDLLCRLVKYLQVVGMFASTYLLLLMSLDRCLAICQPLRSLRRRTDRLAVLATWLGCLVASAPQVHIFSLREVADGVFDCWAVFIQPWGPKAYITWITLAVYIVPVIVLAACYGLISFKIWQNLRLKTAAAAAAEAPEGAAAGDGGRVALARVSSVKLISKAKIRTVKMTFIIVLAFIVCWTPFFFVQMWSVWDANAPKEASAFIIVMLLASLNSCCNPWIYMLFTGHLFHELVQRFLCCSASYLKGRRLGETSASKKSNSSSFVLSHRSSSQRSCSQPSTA
Method: as §1, §2

[4] = molecular target: T4, GRM3 (Homo sapiens, UniProt Q14832); assay: NanoBRET screen HiBiT-GRM3 in HEK293; conditions: GRM3
T4 construct: purchased Promega (in-house HiBiT-GPCR construct library, NanoBRET)
T4 sequence (Q14832 23-879): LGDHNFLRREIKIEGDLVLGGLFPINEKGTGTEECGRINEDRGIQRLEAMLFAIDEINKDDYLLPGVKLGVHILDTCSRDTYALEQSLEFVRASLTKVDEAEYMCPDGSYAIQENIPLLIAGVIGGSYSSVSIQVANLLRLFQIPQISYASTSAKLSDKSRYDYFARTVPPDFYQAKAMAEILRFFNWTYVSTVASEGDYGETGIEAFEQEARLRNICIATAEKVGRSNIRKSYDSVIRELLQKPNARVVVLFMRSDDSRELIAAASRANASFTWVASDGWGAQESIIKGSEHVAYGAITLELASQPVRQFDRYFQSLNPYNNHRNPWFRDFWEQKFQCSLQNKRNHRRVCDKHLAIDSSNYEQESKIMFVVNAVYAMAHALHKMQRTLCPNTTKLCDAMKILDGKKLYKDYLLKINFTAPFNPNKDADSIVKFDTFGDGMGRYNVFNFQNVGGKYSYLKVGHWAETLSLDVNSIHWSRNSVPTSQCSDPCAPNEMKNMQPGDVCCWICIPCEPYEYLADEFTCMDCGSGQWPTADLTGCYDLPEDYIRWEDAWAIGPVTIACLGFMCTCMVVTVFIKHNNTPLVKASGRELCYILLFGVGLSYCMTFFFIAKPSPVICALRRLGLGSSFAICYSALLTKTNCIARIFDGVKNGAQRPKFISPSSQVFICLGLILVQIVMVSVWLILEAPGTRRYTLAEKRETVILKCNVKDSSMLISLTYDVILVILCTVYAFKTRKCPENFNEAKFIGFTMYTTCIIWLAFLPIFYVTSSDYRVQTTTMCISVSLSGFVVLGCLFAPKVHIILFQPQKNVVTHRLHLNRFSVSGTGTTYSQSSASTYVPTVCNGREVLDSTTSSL
Method: as §1, §2

[5] = tracer at 0.1μM, listed as amitriptyline-b-2-NB590
[6] = tracer at 1μM, listed as amitriptyline-b-2-NB590

Compound	NanoBRET Fold Response ([1]; CCR4, tracer 0.1μM)	NanoBRET Fold Response ([1]; CCR4, tracer 1μM)	NanoBRET Fold Response ([2]; P2RY6, tracer 0.1μM)	NanoBRET Fold Response ([2]; P2RY6, tracer 1μM)	NanoBRET Fold Response ([3]; OXTR, tracer 0.1μM)	NanoBRET Fold Response ([3]; OXTR, tracer 1μM)	NanoBRET Fold Response ([4]; tracer 0.1μM)	NanoBRET Fold Response ([4]; tracer 1μM)	other results
Cc1nc2n(c(=O)c1CCN1CCC(c3noc4cc(F)ccc34)CC1)CCCC2OC(=O)NCCOCCOCCOCCOCCNC(=O)CCc1ccc2n1[B-](F)(F)[N+]1=C(c3ccc[nH]3)C=CC1=C2 (stereo not drawn) [Risperidone-2-NB590]	1.01	1.22	1.00	1.03	0.97	0.97	1.07	1.07	
CCOC(=O)c1cc(C#N)c(N2CCC(C(=O)NS(=O)(=O)Cc3ccccc3/C=C/C(=O)NCCNC(=O)CCc3ccc4n3[B-](F)(F)[N+]3=C(c5ccc[nH]5)C=CC3=C4)CC2)nc1C [AZD1283-1-NB590]									NanoBRET Fold Response ([1]; CCR4, 0.1μM): 1.09; NanoBRET Fold Response ([1]; CCR4, 1μM): 1.07; NanoBRET Fold Response ([2]; P2RY6, 0.1μM): 1.18; NanoBRET Fold Response ([2]; P2RY6, 1μM): 1.04; NanoBRET Fold Response ([3]; OXTR, 0.1μM): 1.07; NanoBRET Fold Response ([3]; OXTR, 1μM): 1.07; NanoBRET Fold Response ([4]; 0.1μM): 0.97; NanoBRET Fold Response ([4]; 1μM): 0.99
Cc1cc2c(s1)Nc1ccccc1N=C2N1CCN(CCCNC(=O)CCOCCOCCOCCOCCNC(=O)CCc2ccc3n2[B-](F)(F)[N+]2=C(c4ccc[nH]4)C=CC2=C3)CC1 [Olanzapine-a-2-NB590]	1.01	0.92	1.31	0.95	1.00	0.96	1.02	1.02	
COc1ccccc1N1CCN(CCCCN2C(=O)c3ccc(CNC(=O)CCOCCNC(=O)c4ccc(CNC(=O)CCc5ccc6n5[B-](F)(F)[N+]5=C(c7ccc[nH]7)C=CC5=C6)cc4)cc3C2=O)CC1 [NAN-190-3-NB590]	0.85	1.11	1.10	0.91	1.10	1.05	0.98	1.25	
CC(C)N(CC[C@H](c1ccccc1)c1cc(CCNC(=O)CCOCCOCCOCCOCCNC(=O)CCc2ccc3n2[B-](F)(F)[N+]2=C(c4ccc[nH]4)C=CC2=C3)ccc1O)C(C)C [Tolterodine-2-NB590]	1.29	1.16	1.06	0.98	0.97	0.94	0.82	1.09	
CN(C)CCC=C1c2ccccc2CCc2ccc(C(=O)NCCNC(=O)CCOCCOCCOCCOCCNC(=O)CCc3ccc4n3[B-](F)(F)[N+]3=C(c5ccc[nH]5)C=CC3=C4)cc21 [Amitriptyline-b-2-NB590]							1.00	1.03	NanoBRET Fold Response [1, 5]: 1.02; NanoBRET Fold Response ([1]; tracer at 1μM): 0.95; NanoBRET Fold Response [2, 5]: 1.04; NanoBRET Fold Response [2, 6]: 0.95; NanoBRET Fold Response [3, 5]: 1.08; NanoBRET Fold Response [3, 6]: 1.01
